Reference: patent US4673670A, “N^6 -acenaphthyl adenosines and analogs thereof” (Warner-Lambert Company, priority 1986, dated 1987)

Tested on: conscious rat
Test: Antihypertensive evaluation (AHP3): aortic blood pressure and heart rate from conscious rats
Type: in vivo
Settings: hour 1
Text: This test procedure is described in the following paragraphs.
A Method for the Direct Monitoring of Aortic Blood Pressure and Heart Rate from Conscious Rats
The continuous monitoring of pulsatile blood pressure (BP) from unrestrained conscious rats surgically equipped with polyethylene cannulas was accomplished by means of a computer assisted data capture scheme (CADCS). The basic elements of the methodology are the cannulation procedure and the CADCS.
Cannulation Procedure: Rats were anesthetized with Telazol (1:1 tiletamine HCl and zolazepam HCl); 20-40 mg/kg IM and the descending aorta exposed via a midline incision. Cannulas fabricated from polyethylene tubing were inserted into the aorta via an undersized puncture hole below the renal arteries. The puncture hole was made by a 23 G disposable needle with a section of the aorta clamped off above and below the puncture site. The cannulas, consisting of a PE100 (0.86 mm ID) body and a PE50 (0.58 mm ID) tip, were attached to a trocar, inserted through the psoas muscle, and passed subcutaneously along the midline of the back and externalized between the ears. […]
CADCS: The pulsatile blood pressure and heart rate of each of 32 rats was monitored every minute by means of two in-laboratory microcomputers communicating directly with a data concentrator computer. […]

Row | SMILES | MAP (mean arterial pressure) decrease (30 mg/kg, ↓ = decrease) | HR (heart rate) increase (10 mg/kg, ↑ = increase)
1 | OC[C@H]1O[C@@H](n2cnc3c(NC4Cc5cccc6cccc4c56)ncnc32)[C@H](O)[C@@H]1O (some centres unmarked) [Example 1, N^6 -Acenaphthyladenosine] | 30% | 
2 | OC[C@H]1O[C@@H](n2cnc3c(NCC4=Cc5cccc6cccc4c56)ncnc32)[C@H](O)[C@@H]1O [Example 2, N^6-(1-acenaphthylenylmethyl)adenosine] |  | 0%
